The record followed here is patent publication US12337005B2, “Methods of treating thrombosis” (UNIVERSITY OF IOWA RESEARCH FOUNDATION, priority 2020, dated 2025).

Assay type in all cases: cell-based
One series deals with mouse platelets. Kind of series: Annexin V-affinity assay, mouse platelets. To be noted: increasing concentrations of ML265. As to the method:
Mouse and human washed platelets (1×10^8/ml) were pre-incubated with different concentrations of ML265 ([…]). Washed platelets activated with thrombin (0.5 U/ml)+convulxin (100 ng/ml) were used as a positive control. The samples were added to 1× Annexin V-binding buffer (BD Biosciences). Following this, annexin V-FITC antibody was added to each sample, gently mixed, and incubated at room temperature for 15 minutes in the dark. After incubation, 1× Annexin-binding buffer was added to each tube and analyzed by a Becton Dickinson FACSCalibur flow cytometer.

The subject of series [1] is PI3 kinase-mediated Akt/GSK3β signaling. In words: Western blot of Akt/GSK3β phosphorylation, human platelets. The conditions noted are these: convulxin- or thrombin-mediated, ML265 50 and 100 μM. As to the method:
Platelet proteins were separated on 4-20% SDS-PAGE (sodium dodecyl sulfate-polyacrylamide gel electrophoresis) gradient gels and electrophoretic transferred to PVDF (polyvinylidene fluoride) membrane by using Bio-Rad western blotting system. For PKM2 dimer and tetramer study 6% native gels are used. Membranes were blocked with 5% BSA or skimmed milk in 10 mM Tris-HCl, 150 mM NaCl, pH 8.0 (TBS) containing 0.05% Tween-20 for one hour at room temperature. Blots were incubated for overnight with primary antibody, followed by horseradish peroxidase-labeled secondary antibody for one hour. Blots were developed using enhanced chemiluminescence and quantified using Image J software from NIH (Bethesda, MD, USA).

The test system of series [2] is human platelets. Kind of series: Lactate measurement, human platelets. To be noted: human platelets stimulated with convulxin or thrombin; ML265 pre-treated (50 or 100 μM). Here is the method:
Washed platelets (5×10^8 platelets/mL) in DMEM (5 mM HEPES, 25 mM glucose, 1 mM pyruvate and 2 mM glutamine) were pre-treated with 50 or 100 μM of ML265 or vehicle (DMSO) for 10 mins and stimulated by convulxin (200 ng/ml) for 1 hr. Cells were centrifuged and supernatant was collected. Levels of L-lactate in supernatant were determined using a glycolysis cell based assay kit (Cayman; Item No. 600450) according to the manufacturer's instructions.

Series [3] deals with T1, PKM2 dimers (Homo sapiens, UniProt P14618).
T1 construct: decreased PKM2 dimers in the human platelets stimulated with convulxin or thrombin; endogenous in cells; host or cells: human platelets from healthy volunteers
Kind of series: Native Western blot of PKM2 dimer and tetramer in stimulated human platelets. To be noted: human platelets stimulated with convulxin (100 ng/ml) or thrombin (0.1 U/mL); vs vehicle. As to the method:
To obtain human platelets, blood was collected from healthy volunteers free from antiplatelet medication. Informed consent was taken. Platelets were prepared as described. Briefly, blood was collected in tubes containing anticoagulant citrate dextrose solution A and centrifuged at 180 g for 20 min. After addition of apyrase (0.6 U/ml) to PRP, platelets were sedimented by centrifugation at 800 g for 15 min. Cells were washed in buffer A (20 mM HEPES, 138 mM NaCl, 2.9 mM KCl, 1 mM MgCl2, 0.36 mM NaH2PO4, 1 mM EGTA (ethylene glycol tetraacetic acid), supplemented with 5 mM glucose, pH 6.2). Platelets were finally resuspended in buffer B (pH 7.4), which was the same as buffer ‘A’ but without EGTA and apyrase.
Platelet proteins were separated on 4-20% SDS-PAGE (sodium dodecyl sulfate-polyacrylamide gel electrophoresis) gradient gels and electrophoretic transferred to PVDF (polyvinylidene fluoride) membrane by using Bio-Rad western blotting system. For PKM2 dimer and tetramer study 6% native gels are used. Membranes were blocked with 5% BSA or skimmed milk in 10 mM Tris-HCl, 150 mM NaCl, pH 8.0 (TBS) containing 0.05% Tween-20 for one hour at room temperature. […] Blots were developed using enhanced chemiluminescence and quantified using Image J software from NIH (Bethesda, MD, USA).
(In western blotting, separated proteins are transferred to a membrane and probed.)

A further series concerns human whole blood. Kind of series: Bioflux flow chamber assay, human whole blood on collagen. Here is the method:
In vitro thrombosis assays were performed using BioFlux™ 200 (Fluxion Biosciences, USA) microfluidics flow chamber (Nayak et al., 2018). The channels were coated with Type I collagen (100 μg/ml) for one hour at room temperature and then blocked with 0.5% BSA for 30 minutes. Platelets were isolated from citrated whole blood as described above, washed, labeled with the fluorescent dye (calcein AM; 2 μM) and were reconstituted back with PPP and remaining blood containing leukocytes and RBC. The whole blood pretreated with ML265 or vehicle (DMSO) was perfused over the collagen-coated plate at shear stress 1500 s^−1 for 5 minutes. Experiments were performed in triplicates using whole blood from human and mice. The fluorescently labeled platelets/thrombi on the collagen-coated surface were analyzed using ImageJ software from NIH (Bethesda, MD, USA).

The subject of series [4] is human platelets. Kind of series: P-selectin expression (α-granule secretion), human platelets. To be noted: stimulus-activated human platelets pretreated with ML265. As to the method:
Platelets (1×10^8 cells in 100 μl) were pre-incubated for 10 min either in presence or absence of ML265 (50 and 100 μM) then stimulated by convulxin or TRAP without stirring. Following this, platelets were labeled with PE-labeled anti-CD61 antibody and FITC conjugated anti-CD62P antibody. The platelet samples were incubated for 30 min in the dark at room temperature and analyzed on the flow cytometer (FACS Calibur, Becton Dickinson). An amorphous region (gate) was drawn to differentiate the platelets from the noise and multi-platelet particles. After compensation for FITC and PE, CD61-positive 10,000 events were collected for each sample.

Series [5] concerns human platelets. In words: Clot retraction, human platelet-rich plasma. To be noted: thrombin stimulation, ML265 50 and 100 μM, dose-dependent. Here is the method:
To measure thrombin-stimulated fibrin clot retraction PRP was treated with ML265 (50 and 100 μM) or vehicle control (DMSO) for 10 minutes. Tyrode buffer was added to test tubes, along with red blood cells, to allow visualization of the clot. This was followed by the addition of PRP. Clot formation was initiated by adding thrombin (final concentration 0.25 U/ml) to the test tubes. Photographs were taken every 15 minutes and the assay was terminated after 60 minutes at which time the clot in the vehicle-treated samples were seen to have retracted completely. Clot area was analyzed using Image J software from NIH (Bethesda, MD, USA).

For series [6], the target named is T2, PKM2 dimers (Mus musculus, UniProt P52480).
T2 construct: PKM2 dimer and tetramer expression in platelets pre-treated with vehicle or ML265; endogenous in cells; host or cells: mouse platelets
Kind of series: Native Western blot of PKM2 dimer and tetramer in stimulated mouse platelets. The conditions noted are these: mouse platelets stimulated with convulxin or thrombin. Here is the method: Mouse platelets were prepared. Blood from anesthetized mice was drawn from the retro-orbital plexus and collected in 1.5 mL polypropylene tubes containing 300 μL of enoxaparin (0.3 mg/mL; Sanofi-Aventis, US LLC). The blood was centrifuged at 100 g for 5 minutes, and the platelet-rich plasma (PRP) was collected in a fresh tube. To prevent platelet activation, PRP was incubated with PGI2 (2 μg/mL) at 37° C. for 5 minutes. PRP was further centrifuged at 600 g for 5 minutes. The obtained pellets were suspended in 1 mL modified Tyrode-N-2-hydroxyethylpiperazine-N′-2-ethane sulfonic acid (HEPES) buffer (137 mM NaCl, 0.3 mM Na2HPO4, 2 mM KCl, 12 mM NaHCO3, 5 mM N-2-hydroxyethylpiperazine-N′-2-ethane sulfonic acid, 5 mM glucose, 0.35% bovine serum albumin, pH 7.2). The washing step was repeated twice with Tyrode's to remove PGI2, and platelets were fluorescently labeled with calcein green (wherever required), AM (2.5 μg/mL; Molecular Probes) for 10 minutes at 37° C.
Platelet proteins were separated on 4-20% SDS-PAGE (sodium dodecyl sulfate-polyacrylamide gel electrophoresis) gradient gels and electrophoretic transferred to PVDF (polyvinylidene fluoride) membrane by using Bio-Rad western blotting system. For PKM2 dimer and tetramer study 6% native gels are used. […] Blots were developed using enhanced chemiluminescence and quantified using Image J software from NIH (Bethesda, MD, USA).

SMILES strings stand for the structures.

T1 sequence (P14618 2-531 limits assumed): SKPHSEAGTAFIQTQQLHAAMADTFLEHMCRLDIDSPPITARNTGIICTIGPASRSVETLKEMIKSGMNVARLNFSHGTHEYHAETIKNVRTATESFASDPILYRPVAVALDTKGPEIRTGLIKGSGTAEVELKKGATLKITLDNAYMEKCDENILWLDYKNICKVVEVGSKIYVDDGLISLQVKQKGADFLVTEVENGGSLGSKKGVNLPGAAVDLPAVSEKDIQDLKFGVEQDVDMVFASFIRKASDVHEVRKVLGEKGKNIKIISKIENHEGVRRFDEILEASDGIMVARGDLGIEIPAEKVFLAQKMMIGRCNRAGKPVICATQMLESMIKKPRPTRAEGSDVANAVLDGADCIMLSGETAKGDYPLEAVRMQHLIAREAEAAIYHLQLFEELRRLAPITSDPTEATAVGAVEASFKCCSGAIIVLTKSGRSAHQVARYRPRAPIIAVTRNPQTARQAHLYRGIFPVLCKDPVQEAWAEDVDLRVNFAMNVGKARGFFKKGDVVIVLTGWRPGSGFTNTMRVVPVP
T2 sequence (P52480 2-531 limits assumed): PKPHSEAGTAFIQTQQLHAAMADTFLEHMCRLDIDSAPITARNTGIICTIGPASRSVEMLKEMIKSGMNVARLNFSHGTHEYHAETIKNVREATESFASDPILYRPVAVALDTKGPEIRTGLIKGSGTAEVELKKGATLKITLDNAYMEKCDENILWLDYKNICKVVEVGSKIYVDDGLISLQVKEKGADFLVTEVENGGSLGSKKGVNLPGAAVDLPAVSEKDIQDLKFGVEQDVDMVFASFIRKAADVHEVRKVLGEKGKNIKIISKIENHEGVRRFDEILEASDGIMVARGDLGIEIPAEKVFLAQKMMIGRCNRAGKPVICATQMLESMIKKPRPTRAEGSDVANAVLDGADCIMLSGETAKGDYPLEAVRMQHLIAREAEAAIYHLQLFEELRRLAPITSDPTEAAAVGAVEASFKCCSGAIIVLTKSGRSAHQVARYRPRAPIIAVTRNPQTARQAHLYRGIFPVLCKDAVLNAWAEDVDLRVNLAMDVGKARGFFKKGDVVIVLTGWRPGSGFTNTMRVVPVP

`Cn1c2cc([S+](C)[O-])sc2c2cnn(Cc3cccc(N)c3)c(=O)c21` (stereo not drawn) [ML265, 6-[(3-aminophenyl)methyl]-4,6-dihydro-4-methyl-2-(methylsulfinyl)-5H-thieno[2′,3′:4,5]pyrrolo[2,3-d]pyridazine-5-one]: in the series on mouse platelets, the “apoptosis in resting platelets (Annexin V binding)” value is “does not induce”. In series [1], the Akt phosphorylation result was “down-regulated” and the GSK3β phosphorylation result is recorded as “down-regulated”. For the same molecule, in the series with human platelets [2], the lactate production entry was “significantly decreased”. Moreover, the PKM2 dimers result at PKM2 dimers [3] is listed as “decreased”. For the same molecule, the “reduction in the thrombus growth rate vs vehicle control” value with human whole blood (ML265 150 μM, collagen, 1500 s-1) is about 5 fold. Besides, the “reduction in percent of the area covered by platelets vs vehicle control” value in the series on human whole blood (ML265 150 μM, collagen, 1500 s-1, 5 minutes) was about 5 fold. Further, the “rate of thrombus growth (slope over time)” value in the series with human whole blood (ML265 150 μM, vehicle slope 237.3) is reported as 37.92. Further, the “thrombus formation vs vehicle control” value in the series with human whole blood (ML265 50 or 100 μM, collagen, 1500 s-1, 5 minutes) is “no significant difference”. The “α-granule secretion (P-selectin exposure)” value in the series with human platelets [4] is given as “significant decrease”. Further, in the series on human platelets [5], the clot retraction entry is “significantly inhibited”. Besides, on PKM2 dimers [6], the PKM2 dimer formation result was “limited”.
